{"source": "patent US11793746B2", "about": "“Intense skin hydration systems and methods” (priority 2020, dated 2023)", "key": {"[1]": {"test_system": "lysyl oxidase", "test": "Lysyl oxidase activity in wound-margin biopsies after surgical and xylene injury", "format": "in vivo, nude mice", "description": "The dermotrophic effect of GC-100 was also determined using lysyl oxidase levels as an endpoint to determine whether GC-100 can effect the concentration of lysyl oxidase in wounded tissues and to establish whether GC-100 can accelerate the wound healing process using qualitative measurements.\nNude mice were chosen because their skin (and their lack of hair) is more similar to human skin than are other commonly used laboratory test animals. The test population was divided into 4 groups of 10 nude mice for the purpose of examining the best application sequence for GC-100 relative to injury. Group definitions are as follows:\nA surgical wound measuring 2.54 cm in length and penetrating the dermis was made on the right hind quarter of all test subjects after appropriate anesthesia was administered.\nA second index of injury using 1% xylene was used in all test subjects after creation of the surgical wound. Using a sterile tuberculin syringe, 0.1 mL of a 1% xylene solution was injected subcutaneously into the region of the surgical wound. The final size of the injury measured 25×20 mm^2.\nThe mice in Groups II, III, and IV were divided randomly after physical and chemical injury into 2 subgroups of 5 mice each for application of either GC-100 0.5% or 1%. Pretreatment for Group II and IV mice was conducted one hour prior to any injury, where GC-100 0.5% and 1% was rubbed into the right hind quarter of the designated mice for 50 cycles using a nylon glove. Post-treatment for mice in Group III and IV with GC-100 0.5% and 1% was conducted immediately after injury.\nWound recovery was determined over 30 days using cutaneous punch biopsies that were taken on post injury day 4, and at the conclusion of weeks 2, 3, and 4 from the wound margins. Biopsy specimens were analyzed for lysyl oxidase activity using a standard assay. Results are shown in Table 3 and FIG. 6, which is a graph showing percent lysyl oxidase as a function of treatment schedule and GC-100 concentration."}, "[2]": {"test_system": "photodamaged human skin", "test": "Pilot open label study on photoaged skin: panelist questionnaire and side effects", "format": "in vivo", "description": "(§1) A pilot open label study was conducted to establish the efficacy of GC-100 on photoaged skin in a clinical setting.\n(§2) Primary endpoints for this study were as follows: • 1. Epidermal skin thickness was measured using high frequency ultrasound. • 2. Panelists regard for their overall appearance and any changes noted in the appearance of their wrinkles, lentigines, facial acne and pore size were used in qualitative analysis. In addition, panelists were asked to comment on irritation, novel rashes, and other side effects during the study period.\n(§3) An open label, six week pilot study to examiner the regenerative effect of GC-100 was performed on 15 women with mild to moderate dermatoheliosis as defined by clinical examination. Exclusion criteria selected against patients with a history of retinoic acid use, dermabrasion, or chemical peel application within 6 months prior to study onset. However, all patients had used one or more of these products previously. After appropriate informed consent was obtained, baseline measurements of epidermal thickness using high frequency untrasonography (20 MHz and above) were collected using skin at the infraorbital prominence. Three measurements were taken at each site and averaged to yield a result. GC-100 was applied to the face and neck according to the following schedule: • Weekly: GC-100 applied in mask vehicle • Twice daily: GC-100 applied through lotion vehicle\n(§4) The patient population was divided into two groups, where Group I was evaluated after 24 hours of product application, and Group II was evaluated at the conclusion of weeks 2, 4 and 6. A panelist questionnaire was completed during each evaluation session."}, "[3]": {"test_system": "human skin analog, Skin^2", "test": "MTT cytotoxicity assay", "format": "cell-based", "conditions": "cytotoxic = levels below 80% of untreated control", "description": "Preclinical studies used a three-dimensional metabolically and mitotically active in vitro human skin analog, Skin^2™. This human skin substrate consists of neonatal foreskin fibroblasts that secrete a functionally active extracellular matrix grown on a medical-grade nylon mesh cocultured with human neonatal foreskin keratinocytes that differentiate into a multilayered epidermis.\nThis Example tested cellular viability and measured cell respiration in vitro in response to the application of GC-100 preparations.\nThe toxicity of a substance can be quantified by sustained metabolic activity of the cell in the presence of test substance. The integrity of cellular metabolism can be evaluated using the MTT Coloration Assay, which relies on the metabolism of 3-[4,5-dimethylthiazol-2-yl]-2,5-diphenyl tetrazolium bromide by succinate dehydrogenase of the citric acid cycle. Since the metabolism of MTT is dependent on mitochondrial activity, the amount of metabolite produced can be correlated with the number of viable cells present per well. The metabolite concentration is measured via spectrophotometry, with the absorption value converted to an absolute number that describes cellular growth."}, "[4]": {"test_system": "collagen I and III synthesis", "test": "[3H]-Proline incorporation as measure of collagen deposition", "format": "cell-based, human", "conditions": "in vitro", "description": "This human skin substrate consists of neonatal foreskin fibroblasts that secrete a functionally active extracellular matrix grown on a medical-grade nylon mesh cocultured with human neonatal foreskin keratinocytes that differentiate into a multilayered epidermis.\nQuantifying proline incorporation can be used to measure potential collagen deposition stimulated by a test substance. This concept is the foundation for the following experiments."}, "[5]": {"test_system": "photodamaged human skin", "test": "Pilot open label study on photoaged skin: epidermal thickness by high frequency ultrasound", "format": "in vivo", "conditions": "for % change (epidermal thickness, ultrasound): range over panelists", "description": "as §1, §2, §3, §4"}, "[6]": {"conditions": "Group I, evaluated after 24 hours of product application"}, "[7]": {"conditions": "Group II, evaluated at weeks 2, 4 and 6"}}, "data": [{"substance": "H-Lys-Pro-NH2 [GC-100]", "values": [{"measurement": "% lysyl oxidase", "setting": "[1]; Group II pretreatment, 0.5% GC-100, Day 4", "result": 1.4, "unit": "%"}, {"measurement": "% lysyl oxidase", "setting": "[1]; Group II pretreatment, 0.5% GC-100, Week 2", "result": 10.2, "unit": "%"}, {"measurement": "% lysyl oxidase", "setting": "[1]; Group II pretreatment, 0.5% GC-100, Week 3", "result": 13.4, "unit": "%"}, {"measurement": "% lysyl oxidase", "setting": "[1]; Group II pretreatment, 0.5% GC-100, Week 4", "result": 45.9, "unit": "%"}, {"measurement": "% lysyl oxidase", "setting": "[1]; Group II pretreatment, 1% GC-100, Day 4", "result": 5.2, "unit": "%"}, {"measurement": "% lysyl oxidase", "setting": "[1]; Group II pretreatment, 1% GC-100, Week 2", "result": 18.2, "unit": "%"}, {"measurement": "% lysyl oxidase", "setting": "[1]; Group II pretreatment, 1% GC-100, Week 3", "result": 23.4, "unit": "%"}, {"measurement": "% lysyl oxidase", "setting": "[1]; Group II pretreatment, 1% GC-100, Week 4", "result": 45.9, "unit": "%"}, {"measurement": "% lysyl oxidase", "setting": "[1]; Group III post-treatment, 0.5% GC-100, Day 4", "result": 1.2, "unit": "%"}, {"measurement": "% lysyl oxidase", "setting": "[1]; Group III post-treatment, 0.5% GC-100, Week 2", "result": 3.2, "unit": "%"}, {"measurement": "% lysyl oxidase", "setting": "[1]; Group III post-treatment, 0.5% GC-100, Week 3", "result": 19.8, "unit": "%"}, {"measurement": "% lysyl oxidase", "setting": "[1]; Group III post-treatment, 0.5% GC-100, Week 4", "result": 48.7, "unit": "%"}, {"measurement": "% lysyl oxidase", "setting": "[1]; Group III post-treatment, 1% GC-100, Day 4", "result": 5.3, "unit": "%"}, {"measurement": "% lysyl oxidase", "setting": "[1]; Group III post-treatment, 1% GC-100, Week 2", "result": 11.5, "unit": "%"}, {"measurement": "% lysyl oxidase", "setting": "[1]; Group III post-treatment, 1% GC-100, Week 3", "result": 19.7, "unit": "%"}, {"measurement": "% lysyl oxidase", "setting": "[1]; Group III post-treatment, 1% GC-100, Week 4", "result": 49.6, "unit": "%"}, {"measurement": "% lysyl oxidase", "setting": "[1]; Group IV pre- & post-treatment, 0.5% GC-100, Day 4", "result": 21, "unit": "%"}, {"measurement": "% lysyl oxidase", "setting": "[1]; Group IV pre- & post-treatment, 0.5% GC-100, Week 2", "result": 30.1, "unit": "%"}, {"measurement": "% lysyl oxidase", "setting": "[1]; Group IV pre- & post-treatment, 0.5% GC-100, Week 3", "result": 42.4, "unit": "%"}, {"measurement": "% lysyl oxidase", "setting": "[1]; Group IV pre- & post-treatment, 0.5% GC-100, Week 4", "result": 52.8, "unit": "%"}, {"measurement": "% lysyl oxidase", "setting": "[1]; Group IV pre- & post-treatment, 1% GC-100, Day 4", "result": 47.2, "unit": "%"}, {"measurement": "% lysyl oxidase", "setting": "[1]; Group IV pre- & post-treatment, 1% GC-100, Week 2", "result": 50.5, "unit": "%"}, {"measurement": "% lysyl oxidase", "setting": "[1]; Group IV pre- & post-treatment, 1% GC-100, Week 3", "result": 58.8, "unit": "%"}, {"measurement": "% lysyl oxidase", "setting": "[1]; Group IV pre- & post-treatment, 1% GC-100, Week 4", "result": 62.7, "unit": "%"}, {"measurement": "Incidence of side effects", "setting": "[2]; panelist questionnaire", "result": 0, "unit": "%"}, {"measurement": "Positive response: Decreased appearance of lentigines", "setting": "[2]; panelist questionnaire", "result": 54, "unit": "%"}, {"measurement": "Positive response: Decreased appearance of pores", "setting": "[2]; panelist questionnaire", "result": 92, "unit": "%"}, {"measurement": "Positive response: Decreased appearance of wrinkles", "setting": "[2]; panelist questionnaire", "result": 62, "unit": "%"}, {"measurement": "Positive response: Decreased incidence of blemishes", "setting": "[2]; panelist questionnaire", "result": 92, "unit": "%"}, {"measurement": "Positive response: Improved overall cosmetic appearance", "setting": "[2]; panelist questionnaire", "result": 92, "unit": "%"}, {"measurement": "clinical irritation during the study", "setting": "[2]; six week study, face and neck", "result": "No clinically detectable irritation"}, {"measurement": "cytotoxic response (MTT)", "setting": "[3]", "result": "does not elicit a cytotoxic response"}, {"measurement": "proline incorporation relative to Retin-A (retinoic acid) 0.025%", "setting": "[4]", "result": "more than twice"}, {"measurement": "Mean % (change in epidermal thickness)", "setting": "[5]; [6]", "result": 8.5, "unit": "%"}, {"measurement": "% change (epidermal thickness, ultrasound)", "setting": "[5]; [6]", "result": "3.4-19.2%"}, {"measurement": "Mean % (change in epidermal thickness)", "setting": "[5]; [7]", "result": 7.95, "unit": "%"}, {"measurement": "% change (epidermal thickness, ultrasound)", "setting": "[5]; [7]", "result": "2.9-14%"}, {"measurement": "stratum corneum compaction spongiosis, granular cell layer thickness and epidermal thickness vs baseline", "setting": "[5]; both treatment groups, high frequency ultrasound", "result": "significant increase over baseline"}, {"measurement": "average increase in epidermal thickness", "setting": "[5]; six weeks after application", "result": 8, "unit": "%"}]}]}
